Laboratory results published in patent publication US20170348349A1, “Modulation of Amyloid Beta Toxicity and Processing By Xenon Gas” (NOBLIS THERAPEUTICS, INC., priority 2016, published 2017).
Where two headings read alike, the source gives them in different places.

Experiments:
[1] = cited from earlier work
[2] = target: T1, Amyloid-beta protein (1-42) (Homo sapiens, UniProt P05067); experiment: Amyloid-beta (1-42) aggregation under anaesthetic gas: electrophoresis/western blot of monomer, LMW and HMW bands; assay type: biochemical; conditions: Xenon (50%) in air balanced with 5% CO2, 37° C., 24 hours
T1 construct: Amyloid-beta protein (1-42) hydrochloride salt (Bachem AG, Switzerland); purchased Bachem AG, Switzerland
T1 sequence (P05067 672-713 limits assumed): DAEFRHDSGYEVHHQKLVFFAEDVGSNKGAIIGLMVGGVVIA
Description: For detection of monomer formation Amyloid-beta protein (1-42) hydrochloride salt (Bachem AG, Switzerland) stored at −80° C. was removed and placed on ice. 1,1,1,3,3,3-hexafluoro-2-propanol (HFIP) (Sigma-Aldrich, Poole, UK) was placed on ice in the hood and allow to cool.110 HFIP was added to 0.5 mg amyloid- ? to produce a final concentration of 1 mM. The HFIP plus amyloid-beta solution was mixed on the vortex to ensure no solid remained on the vial edges. The HFIP plus amyloid-beta solution was incubated at room temperature for 60 minutes with the vial closed. The solution was then placed on ice for 10 minutes. The HFIP plus amyloid-beta solution was aliquoted into non-siliconized micro-centrifuge tubes amyloid-beta1-42). […]
When required peptide film containing tubes were removed from the −80° C. freezer and placed on ice. […] The protein was produced as above and was analysed immediately this was termed 0 hours. […]
The treated samples were centrifuged at 14,000 rpm at 4° C. for 10 minutes. […] The bands were detected with horseradish peroxidase-linked Ig anti-rabbit antibody (concentration 1:1000) (New England Biolab, Hitchin, UK) and visualised with the enhanced chemiluminesence system (ECL, Amersham Biosciences, Little Chalfont, UK). The monomer, LMW and HMW bands were located using a protein ladder to determine the molecular mass and were then quantified by densitometry (Adobe Photoshop). […]

Amyloid β aggregation (electrophoresis stain, FIG. 2A) [2]: reduces Amyloid β aggregation
Structure (SMILES): [Xe] [xenon]
safety ([1]; 12 healthy volunteers, xenon in increasing concentrations 10%, 20%, 30%, 40% (Peterson-Felix et al.)): Safety was reported
adverse events ([1]; six healthy male volunteers, 21% xenon for 20 minutes (Yagi et al.)): no adverse events
adverse events ([1]; ten healthy adults, xenon 25%, 30% and 35%, each for 5-minute intervals (Sclabassi et al.)): no adverse events
